Reference: patent US9073858B2, “Methods of targeted drug development” (priority 2010, dated 2015)
Read-outs that look alike come from different tables or passages of the source.

How the values were obtained:
Type in all cases: cell-based
A549 cells = test: A549 Cell Proliferation Assay (MTT); details: Homo sapiens
Method: Cell proliferation is determined using the MTT assay. The MTT cell proliferation assay is a colorimetric assay system which measures the reduction of a tetrazolium component (MTT) into an insoluble formazan product by the mitochondria of viable cells. After incubation of the cells with the MTT reagent, DMSO is added to solubilize the colored crystals and the samples read at a wavelength of 560 nm. The amount of color produced is directly proportional to the number of viable cells. […] L11939) was prepared at 5 mg/ml in PBS. […] Plates were read on the PolarStar plate reader at 560 nm. […] IC50 values were calculated in GraphPad Prism using non-linear regression curve fitting. All statistical analyses was done either in GraphPad Prism or Microsoft Excel. […] Briefly, compounds are added to cells plated in 96-well plates. The cells are allowed to grow for 72 hours before MTT treatment. The effect of the compounds on cell proliferation is analyzed using GraphPad Prism. A549 cells are a non-small cell lung cancer cell line that have wild type EGFR and p53 but have point mutations in KRAS gene which transform it into an oncogene. […] SH30071.03, lot no. ATB31500), 1% Pen Strep (Gibco, cat no. […] On day 2, working solutions of compounds at 200× were prepared. […] Plates were incubated for 72 hours before analyzing them with MTT (as described above).

H1975 cells = test: H1975 Cell Proliferation Assay (MTT); details: Homo sapiens, read-out: IC50 Value (μM) H1975 Cells
Method: (§1) Cell proliferation is determined using the MTT assay. The MTT cell proliferation assay is a colorimetric assay system which measures the reduction of a tetrazolium component (MTT) into an insoluble formazan product by the mitochondria of viable cells. After incubation of the cells with the MTT reagent, DMSO is added to solubilize the colored crystals and the samples read at a wavelength of 560 nm. The amount of color produced is directly proportional to the number of viable cells.
(§2) 3-(4,5-Dimethylthiazol-2-yl)-2,5-diphenyltetrazolium Bromide (MTT) dye (Aesar, cat no. L11939) was prepared at 5 mg/ml in PBS. To each well, 20 μl of MTT solution was added to existing media and mixed thoroughly with 5 mins of gentle shaking at room temperature. Plates were incubated at 37° C., 5% CO2 for approximately 2 hrs. After 2-3 hrs incubation, media was aspirated out and plates were patted dry. […] Plates were incubated at 37° C., 5% CO2 for 10 min and mix thoroughly with 5 mins of gentle shaking at room temperature. Plates were read on the PolarStar plate reader at 560 nm. Percent (%) inhibition was calculated as 100%−(OD560 nm experimental-blank)×100%/OD560 nm control-blank. Blank=wells+serum free media+0.5% DMSO. Experimental=wells+cells+treatment+0.5% DMSO. Control=wells+cells+0.5% DMSO. IC50 values were calculated in GraphPad Prism using non-linear regression curve fitting. All statistical analyses was done either in GraphPad Prism or Microsoft Excel.
Briefly, compounds are added to cells plated in 96-well plates. The cells are allowed to grow for 72 hours before MTT treatment. The effect of the compounds on cell proliferation is analyzed using GraphPad Prism.

HT-29 cells = test: HT-29 Cell Proliferation Assay (MTT); details: Homo sapiens, read-out: IC50 Value (μM) HT-29 Cells
Method: as §1, §2
Briefly, compounds are added to cells plated in 96-well plates. […] The effect of the compounds on cell proliferation is analyzed using GraphPad Prism.
HT-29 cells are a colon cancer cell line that is utilized to assess the ability of compounds to inhibit the proliferation of cells in tumors of the colon.
For the HT-29 cell proliferation assay, on day 1, HT-29 cells are seeded at 3,000 cells/well in 100 μl media containing 10% FBS, 1× Pen-Strep, and 1× L-Glutamine in 96 well, tissue culture-treated plates. […] Working solutions of compounds were prepared (at […] in 100% DMSO). To 200 μl media, 20 μl of a 5× compound (diluted in plain media) was added for a final DMSO concentration of 0.5%. […] On day 5, plates were analyzed for cell growth using the MTT assay.

[1] = A549, 72 h, read-out: IC50 Value (μM) A549 Cells
[2] = A549, read-out: IC50, cell proliferation in A549 or H1975 cells

IC50 (A549 cells; A549, MTT, 72 hours, read-out: IC50 Value (μM) A549 Cells) | IC50 (HT-29 cells; HT-29, MTT, 72 hrs) | SMILES | IC50 (A549 cells; [1]) | IC50 (H1975 cells; NCI-H1975, 72 h) | IC50 (HT-29 cells; HT-29, 72 h) | IC50 (H1975 cells; NCI-H1975, MTT, 72 hours) | IC50 (A549 cells; [2])
– | – | Oc1c(C(Nc2ncc(F)cc2F)c2ccc(F)cc2Cl)ccc2cccnc12 (stereo not drawn) [AD4-13146] | 0.14 µM | 0.24 µM | 2 µM | – | –
– | – | Cc1cc(NC(c2ccc3cccnc3c2O)c2c(Cl)cccc2Cl)ncc1Cl (stereo not drawn) [AD4-13148] | 0.13 µM | 0.31 µM | 1.1 µM | – | –
– | – | Cc1cc(Cl)cnc1NC(c1ccc(Cl)cc1)c1ccc2cccnc2c1O (stereo not drawn) [AD4-13154] | 0.17 µM | 0.15 µM | 0.76 µM | – | –
– | – | Cc1cc(Cl)cnc1NC(c1cccc(Cl)c1)c1ccc2cccnc2c1O (stereo not drawn) [AD4-13159] | 0.11 µM | 0.13 µM | 1.2 µM | – | –
– | – | Cc1cc(Cl)cnc1NC(c1cc(Cl)cc(Cl)c1Cl)c1ccc2cccnc2c1O (stereo not drawn) [AD4-13167] | 0.1 µM | 0.31 µM | 1.5 µM | – | –
– | – | Oc1c(C(Nc2ncc(F)cc2F)c2ccc(Cl)cc2Cl)ccc2cccnc12 (stereo not drawn) [AD4-13175] | 0.17 µM | 3.8 µM | 2 µM | – | –
– | – | Oc1c(C(Nc2cc(Cl)c(Cl)cn2)c2cc(Cl)cc(Cl)c2Cl)ccc2cccnc12 (stereo not drawn) [AD4-13180] | 0.1 µM | 0.86 µM | 1.7 µM | – | –
– | – | Oc1c(C(Nc2ncc(F)cc2F)c2ccc(Cl)c(Cl)c2)ccc2cccnc12 (stereo not drawn) [AD4-13182] | 0.19 µM | 1.8 µM | 8.3 µM | – | –
– | – | Oc1c(C(Nc2cc(Cl)c(Cl)cn2)c2ccc(Cl)c(C(F)(F)F)c2)ccc2cccnc12 (stereo not drawn) [AD4-13184] | 0.11 µM | 0.24 µM | 2.2 µM | – | –
– | – | Oc1c(C(Nc2cc(Cl)c(Cl)cn2)c2ccc(Cl)cc2)ccc2cccnc12 (stereo not drawn) [AD4-13187] | 0.15 µM | 0.26 µM | 1.3 µM | – | –
– | – | Oc1c(C(Nc2cc(Cl)c(Cl)cn2)c2cccc(Cl)c2)ccc2cccnc12 (stereo not drawn) [AD4-13188] | 0.14 µM | 0.28 µM | 0.86 µM | – | –
0.19 µM | 4.5 µM | Cc1cc(Cl)ccc1NC(c1ccc(Cl)c(Cl)c1)c1ccc2cccnc2c1O (stereo not drawn) [AD4-13204] | – | – | – | 1.4 µM | –
– | – | Cc1nc(NC(c2cc(Cl)cc(Cl)c2Cl)c2ccc3cccnc3c2O)ccc1Cl (stereo not drawn) [AD4-13209] | 0.17 µM | 0.14 µM | 2.3 µM | – | –
– | – | Cc1nc(NC(c2cccc(Cl)c2Cl)c2ccc3cccnc3c2O)c(Cl)cc1Cl (stereo not drawn) [AD4-13211] | 0.082 µM | 0.16 µM | 2 µM | – | ≤ 0.1 µM
– | – | Cc1cc(Cl)cnc1NC(c1ccc(Cl)cc1Cl)c1cc(Cl)c2cccnc2c1O (stereo not drawn) [AD4-13212] | 0.13 µM | – | 3.5 µM | 0.16 µM | –
– | – | Cc1nc(NC(c2cc(Cl)cc(Cl)c2Cl)c2ccc3cccnc3c2O)c(Cl)cc1Cl (stereo not drawn) [AD4-13213] | 0.16 µM | – | 5.4 µM | – | –
– | – | COc1cc(Cl)cnc1NC(c1cc(Cl)cc(Cl)c1)c1ccc2cccnc2c1O (stereo not drawn) [AD4-13216] | 0.12 µM | – | 1.6 µM | – | –
– | – | CCc1cc(Cl)cnc1NC(c1ccc(Cl)cc1Cl)c1ccc2cccnc2c1O (stereo not drawn) [AD4-13217] | 0.12 µM | – | 0.96 µM | – | –
– | – | CCc1c(Cl)cnc(NC(c2ccc(Cl)cc2Cl)c2ccc3cccnc3c2O)c1F (stereo not drawn) [AD4-13218] | 0.086 µM | – | 0.92 µM | – | ≤ 0.1 µM
– | – | Cc1nc(NC(c2cc(Cl)cc(Cl)c2)c2ccc3cccnc3c2O)c(Cl)cc1Cl (stereo not drawn) [AD4-13223] | 0.11 µM | – | 2.5 µM | – | –
